Test results published in patent publication US9212209B2, “Screening methods for spinal muscular atrophy” (Indiana University Research and Technology Corporation, priority 2012, dated 2015).
Values after ≈ are worked out from the molar mass of the structure shown. Values joined by “and” are separate entries in the source; they are usually repeats but may differ in a detail not shown here. Identical values can stand only once. Like-named read-outs stand apart in the source and are kept apart here.

Experiments:
[1] = tested on: SMA mice; experiment: SMA mice, intraperitoneal dosing: lifespan, weight, time to right; format: in vivo, mouse; details: for lifespan / weight of the treated animals: words; for Time to right: individual pup, raw data
Procedure: The animal studies included new derivatives of LDN-76070 and LDN-75654. Mice were injected intraperitoneally once daily from post-natal day 1-10. […] Compounds LDN-212014, LDN-212016, LDN-212351, and LDN-212391 were injected into a cohort of animals (3-4 each). […] In the Kaplan-Meier curve that DMSO control decreased survival by 50%—the compounds were in […] (FIG. 26A).
LDN-212014 and LDN-76070 were further tested in A7 SMA model mice. Mice were dosed using compounds dissolved in 100% DMSO injected at 20 mg/kg with each dose administered once daily by intraperitoneal injection. As shown in the black curves in the Kaplan-Meier plot, control animals lived 4-5 days longer than the DMSO vehicle treated animals, indicating toxicity. […] In fact, the compounds display a statistically significant increase in survival compared with the untreated animals. These compounds extend the lifespan of SMA mice despite the DMSO toxicity.
In ‘time to right’ experiments, animals are placed on their backs and the duration for animals to right themselves is recorded. Animals that are unable to right in less than 30 seconds are scored as a failure. DMSO treated animals were unable to right themselves, while a small percentage of untreated animals display the ability to right themselves for up to postnatal day (PND) 11. A larger percentage of treated animals can right themselves past PND 17, and in the case of one animal as late as PND 21.

[2] = tested on: SMN2-luciferase reporter; experiment: SMN2-luciferase reporter assay (clonal HEK-293 SMN2-luc cells); format: cell-based, human; details: for Emax: read-out: Max % Activity; for Na-But RLU ave: 0.5 mg/mL sodium butyrate
[3] = Solubility in PBS / aqueous solution; format: physicochemical
[4] = Liver microsome stability; details: for Stabilityin liver microsomes: Table 8; for Stability: Table 9; for half-life: mouse, liver microsomes
[5] = tested on: SMN2-luciferase reporter; experiment: SMN2-luciferase reporter assay (clonal HEK-293 SMN2-luc cells); format: cell-based, human; details: 0.5 mg/mL sodium butyrate; 384-well validation; 7,500 cells per well; 24 hrs
[6] = IP once daily post-natal day 1-10, compounds in 20% DMSO, 3-4 animals each
[7] = IP once daily post-natal day 1-10, compounds in 20% DMSO
[8] = Homo sapiens, HEK293, reporter assay, Table 6, read-out: Ec50
[9] = Homo sapiens, HEK293, reporter assay, Table 6
[10] = t1/2 in mouse liver microsomes, mouse liver microsomes
[11] = Homo sapiens, HEK293, Table 7, read-out: EC50
[12] = PBS, aqueous buffer, read-out: Maximal solubility in PBS
[13] = aqueous solution, Table 8, grades, read-out: Solubility in aqueous solution
[14] = T1/2 in liver microsomes, Table 7

SMILES: O=C(Nc1ncc(C2(O)CCC2)s1)c1ccc(F)c(Cl)c1 [LDN-212014]
- lifespan [1, 6]: extension of lifespan
- weight of the treated animals [1, 7]: increased
- Time to right ([1]; PND 6): Fail (Fail = >30 sec)
- Time to right ([1]; PND 6, listed as 212014): dead
- Time to right ([1]; PND 7): Fail (Fail = >30 sec)
- Time to right ([1]; PND 7, listed as 212014): dead
- Time to right ([1]; PND 8): Fail (Fail = >30 sec)
- Time to right ([1]; PND 8, listed as 212014): dead
- Time to right ([1]; PND 9): Fail (Fail = >30 sec) (2×) and dead and 26 seconds
- Time to right ([1]; PND 10): Fail (Fail = >30 sec)
- Time to right ([1]; PND 10, listed as 212014): dead
- Time to right ([1]; PND 11): 5 seconds and dead and Fail (Fail = >30 sec) (2×)
- Time to right ([1]; PND 12): 16 s
- Time to right ([1]; PND 12, listed as 212014): dead
- Time to right ([1]; PND 13): Fail (Fail = >30 sec)
- Time to right ([1]; PND 13, listed as 212014): dead
- Time to right ([1]; PND 14): 5 s
- Time to right ([1]; PND 14, listed as 212014): dead
- Time to right ([1]; PND 15): 14 s
- Time to right ([1]; PND 15, listed as 212014): dead
- Time to right ([1]; PND 16): Fail (Fail = >30 sec)
- Time to right ([1]; PND 16, listed as 212014): dead
- Time to right ([1]; PND 17): Fail (Fail = >30 sec)
- Time to right ([1]; PND 17, listed as 212014): dead
- Time to right ([1]; PND 18): dead
- Time to right ([1]; PND 19): dead
- Time to right ([1]; PND 20): dead
- lifespan ([1]; SMA model mice, 20 mg/kg once daily IP in 100% DMSO, vs DMSO vehicle, p<0.0001): significantly increased lifespan
- EC50 [2, 8]: 0.5 µM
- Emax [2, 9]: 180%
- Maximum % activation ([2]; Table 7): 156.6 ± 30.7%
- EC50 ([2]; Table 7, read-out: EC50): 0.3 µM
- Active ([2]; reporter assay, Table 6): Yes
- Maximal solubility in PBS ([3]; PBS): >2000 µM
- T1/2 in liver microsomes ([4]; Table 7): 39 min
- Stabilityin liver microsomes [4]: 39 min
- Stability [4]: 39 min
- half-life [4, 10]: 39 min

SMILES: CC(C)c1cc(C(=O)Nc2nc3ccccc3[nH]2)no1 [LDN-212016]
- lifespan [1, 6]: extension of lifespan
- weight of the treated animals [1, 7]: increased
- Time to right ([1]; PND 6): Fail (Fail = >30 sec)
- Time to right ([1]; PND 7): Fail (Fail = >30 sec) (3×) and 25 seconds
- Time to right ([1]; PND 8): Fail (Fail = >30 sec)
- Time to right ([1]; PND 9): Fail (Fail = >30 sec)
- Time to right ([1]; PND 10): Fail (Fail = >30 sec) (3×) and 12 seconds
- Time to right ([1]; PND 11): Fail (Fail = >30 sec) (3×) and 9 seconds
- Time to right ([1]; PND 12): Fail (Fail = >30 sec)
- Time to right ([1]; PND 13): dead and Fail (Fail = >30 sec) (2×) and 11 seconds
- Time to right ([1]; PND 14): dead (2×) and Fail (Fail = >30 sec) (2×)
- Time to right ([1]; PND 15): dead (3×) and Fail (Fail = >30 sec)
- Time to right ([1]; PND 16): dead (3×) and Fail (Fail = >30 sec)
- Time to right ([1]; PND 17): dead (3×) and Fail (Fail = >30 sec)
- Time to right ([1]; PND 18): dead
- Time to right ([1]; PND 19): dead
- Time to right ([1]; PND 20): dead
- EC50 [2, 11]: 0.3 µM
- EC50 [2, 8]: 0.3 µM
- Emax [2, 9]: 250%
- Maximum % activation ([2]; Table 7): 162.4 ± 62.4%
- Active ([2]; reporter assay, Table 6): Yes
- solubility [3, 12]: 500 µM (≈ 135 µg/mL)
- solubility [3, 13]: < 500 µM
- Stabilityin liver microsomes [4]: 3 min
- Stability [4]: 3 min

SMILES: COc1cc2c(c(OC)c1OC)C(c1cc(Cl)ccc1F)CC(=O)N2 (stereo not shown) [LDN-212351]
- lifespan [1, 6]: extension of lifespan
- weight of the treated animals [1, 7]: increased
- Time to right ([1]; PND 6): dead and Fail (Fail = >30 sec) (2×) and 3 seconds
- Time to right ([1]; PND 7): dead and Fail (Fail = >30 sec) (2×) and 5 seconds
- Time to right ([1]; PND 8): dead and Fail (Fail = >30 sec) (3×)
- Time to right ([1]; PND 9): dead and 13 seconds and Fail (Fail = >30 sec) (2×)
- Time to right ([1]; PND 10): dead and Fail (Fail = >30 sec) (3×)
- Time to right ([1]; PND 11): dead (3×) and Fail (Fail = >30 sec)
- Time to right ([1]; PND 12): dead (3×) and Fail (Fail = >30 sec)
- Time to right ([1]; PND 13): dead (3×) and Fail (Fail = >30 sec)
- Time to right ([1]; PND 14): dead (3×) and Fail (Fail = >30 sec)
- Time to right ([1]; PND 15): dead
- Time to right ([1]; PND 16): dead
- Time to right ([1]; PND 17): dead
- Time to right ([1]; PND 18): dead
- Time to right ([1]; PND 19): dead
- Time to right ([1]; PND 20): dead
- EC50 [2, 11]: 9.8 µM
- EC50 [2, 8]: 12 µM
- Emax [2, 9]: 150%
- Maximum % activation ([2]; Table 7): 168.5 ± 10.6%
- Active ([2]; reporter assay, Table 6): Yes
- solubility [3, 12]: 500 µM (≈ 183 µg/mL)
- solubility [3, 13]: < 500 µM
- Stabilityin liver microsomes [4]: 45 min
- Stability [4]: 45 min
- half-life [4, 14]: 45 min
- half-life [4, 10]: 45 min

SMILES: COc1cc2c(c(OC)c1OC)C(c1cc(Cl)ccc1F)NC(=O)N2 (stereo not shown) [LDN-212391]
- lifespan [1, 6]: extension of lifespan
- weight of the treated animals [1, 7]: increased
- Time to right ([1]; PND 6): Fail (Fail = >30 sec)
- Time to right ([1]; PND 7): Fail (Fail = >30 sec)
- Time to right ([1]; PND 8): Fail (Fail = >30 sec)
- Time to right ([1]; PND 9): Fail (Fail = >30 sec) (2×) and 18 seconds
- Time to right ([1]; PND 10): Fail (Fail = >30 sec) (2×) and 20 seconds
- Time to right ([1]; PND 11): Fail (Fail = >30 sec)
- Time to right ([1]; PND 12): dead and Fail (Fail = >30 sec) (2×)
- Time to right ([1]; PND 13): dead and Fail (Fail = >30 sec) (2×)
- Time to right ([1]; PND 14): dead and Fail (Fail = >30 sec) (2×)
- Time to right ([1]; PND 15): dead and Fail (Fail = >30 sec) (2×)
- Time to right ([1]; PND 16): dead (2×) and Fail (Fail = >30 sec)
- Time to right ([1]; PND 17): dead (2×) and Fail (Fail = >30 sec)
- Time to right ([1]; PND 18): dead (2×) and Fail (Fail = >30 sec)
- Time to right ([1]; PND 19): dead (2×) and Fail (Fail = >30 sec)
- Time to right ([1]; PND 20): dead
- EC50 [2, 11]: 5 µM
- EC50 [2, 8]: 4.4 µM
- Maximum % activation ([2]; Table 7): 238.3 ± 28.5%
- Active ([2]; reporter assay, Table 6): Yes
- Max % Activity ([2]; reporter assay, Table 6): 267%
- solubility [3, 12]: 1000 µM (≈ 367 µg/mL)
- solubility [3, 13]: 500 to 2000 µM (≈ 183 to 734 µg/mL)
- Stabilityin liver microsomes [4]: 13 to 20 min
- Stability [4]: 13 to 20 min
- half-life [4, 14]: 13 min

SMILES: CCCC(=O)[O-].[Na+] [Na-But]
- Na-But RLU ave [5]: 2832 RLU
- Na-But RLU ave ([2]; 96-well validation, 25,000 cells per well, 24 hrs): 2046 RLU
- Na-But RLU ave ([2]; 96-well validation, 25,000 cells per well, 48 hrs): 3696 RLU
- Na-But RLU ave ([2]; 96-well validation, 50,000 cells per well, 24 hrs): 4798 RLU
- Na-But RLU ave ([2]; 96-well validation, 50,000 cells per well, 48 hrs): 7505 RLU
- Na-But RLU ave ([2]; 384-well LDDN screen, 10,000 cells per well, 24 hrs): 13894 RLU
- Na-But RLU ave ([2]; 384-well validation, 5,000 cells per well, 24 hrs): 1332 RLU
- Na-But RLU ave ([2]; 384-well validation, 10,000 cells per well, 24 hrs): 39287 RLU
